Active and inactive are the calls of the source. How the calls were made is not given here.
Tested on: CCRIS mutagenicity, Ames/micronucleus/aberration tests
Assay: CCRIS mutagenicity studies

Q: How did the mutagenic call (End Point: IN VITRO CHROMOSOMAL ABERRATIONS, Test System: CHO (WBL) CELLS, Metabolic Activation: NONE) turn out when COc1cccc2c1cc([N+](=O)[O-])c1c(C(=O)O)cc3c(c12)OCO3 was run?
A: active; positive

Q: What about the mutagenic call (End Point: IN VITRO CHROMOSOMAL ABERRATIONS, Test System: CHO (WBL) CELLS, Metabolic Activation: RAT, LIVER, S-9, AROCLOR 1254) of the same molecule?
A: active; positive

Q: What about the mutagenic call (End Point: IN VITRO CHROMOSOMAL ABERRATIONS, Test System: CHO CELLS, Metabolic Activation: NONE) of the same molecule?
A: active; positive

Q: What about the mutagenic call (End Point: IN VITRO CHROMOSOMAL ABERRATIONS, Test System: CHO CELLS, Metabolic Activation: S-9) of the same molecule?
A: active; positive

Q: And the mutagenic call (End Point: IN VITRO MICRONUCLEUS, Test System: CHO (WBL) CELLS, Metabolic Activation: RAT, LIVER, S-9, AROCLOR 1254)?
A: active; positive

Q: And the mutagenic call (End Point: IN VITRO MICRONUCLEUS, Test System: CHO CELLS, Metabolic Activation: S-9)?
A: active; positive

Q: And the mutagenic call (End Point: In vitro micronucleus, Test System: Human hepatoma (HepG2) cells, Metabolic Activation: None)?
A: active; positive

Q: And the mutagenic call (Test System: AMES SALMONELLA TYPHIMURIUM, Strain/Indicator: D3052, Metabolic Activation: NONE, Method: STANDARD PLATE)?
A: inactive; negative

Q: And the mutagenic call (Test System: AMES SALMONELLA TYPHIMURIUM, Strain/Indicator: D3052, Metabolic Activation: RAT, LIVER, S-9, PHENOBARBITAL, Method: STANDARD PLATE)?
A: inactive; negative

Q: What about the mutagenic call (Test System: AMES SALMONELLA TYPHIMURIUM, Strain/Indicator: G46, Metabolic Activation: NONE, Method: STANDARD PLATE) of the same molecule?
A: inactive; negative

Q: What about the mutagenic call (Test System: AMES SALMONELLA TYPHIMURIUM, Strain/Indicator: G46, Metabolic Activation: RAT, LIVER, S-9, PHENOBARBITAL, Method: STANDARD PLATE) of the same molecule?
A: inactive; negative

Q: And the mutagenic call (Test System: AMES SALMONELLA TYPHIMURIUM, Strain/Indicator: TA98(NR), Metabolic Activation: NONE, Method: STANDARD PLATE)?
A: inactive; negative

Q: And the mutagenic call (Test System: AMES SALMONELLA TYPHIMURIUM, Strain/Indicator: TA98, Metabolic Activation: NONE)?
A: inactive; negative

Q: And the mutagenic call (Test System: AMES SALMONELLA TYPHIMURIUM, Strain/Indicator: TA98, Metabolic Activation: NONE, Method: STANDARD PLATE)?
A: inactive; negative

Q: What about the mutagenic call (Test System: AMES SALMONELLA TYPHIMURIUM, Strain/Indicator: TA98, Metabolic Activation: RAT, LIVER, S-9, AROCLOR 1254, Method: STANDARD PLATE) of the same molecule?
A: active; positive

Q: And the mutagenic call (Test System: AMES SALMONELLA TYPHIMURIUM, Strain/Indicator: TA98, Metabolic Activation: RAT, LIVER, S-9, CLOPHEN A50)?
A: inactive; negative

Q: And the mutagenic call (Test System: AMES SALMONELLA TYPHIMURIUM, Strain/Indicator: TA98, Metabolic Activation: RAT, LIVER, S-9, PHENOBARBITAL, Method: STANDARD PLATE)?
A: active; positive

Q: What about the mutagenic call (Test System: AMES SALMONELLA TYPHIMURIUM, Strain/Indicator: TA100(NR), Metabolic Activation: NONE, Method: STANDARD PLATE) of the same molecule?
A: inactive; negative

Q: And the mutagenic call (Test System: AMES SALMONELLA TYPHIMURIUM, Strain/Indicator: TA100(NR), Metabolic Activation: S-9, Method: STANDARD PLATE)?
A: inactive; negative

Q: What about the mutagenic call (Test System: AMES SALMONELLA TYPHIMURIUM, Strain/Indicator: TA100, Metabolic Activation: NONE) of the same molecule?
A: active; positive

Q: What about the mutagenic call (Test System: AMES SALMONELLA TYPHIMURIUM, Strain/Indicator: TA100, Metabolic Activation: NONE, Method: STANDARD PLATE) of the same molecule?
A: inactive; negative

Q: What about the mutagenic call (Test System: AMES SALMONELLA TYPHIMURIUM, Strain/Indicator: TA100, Metabolic Activation: RAT, LIVER, S-9, AROCLOR 1254, Method: STANDARD PLATE) of the same molecule?
A: active; positive

Q: And the mutagenic call (Test System: AMES SALMONELLA TYPHIMURIUM, Strain/Indicator: TA100, Metabolic Activation: RAT, LIVER, S-9, CLOPHEN A50)?
A: active; positive

Q: And the mutagenic call (Test System: AMES SALMONELLA TYPHIMURIUM, Strain/Indicator: TA100, Metabolic Activation: RAT, LIVER, S-9, PHENOBARBITAL, Method: STANDARD PLATE)?
A: active; positive

Q: And the mutagenic call (Test System: AMES SALMONELLA TYPHIMURIUM, Strain/Indicator: TA100, Metabolic Activation: S-9, Method: STANDARD PLATE)?
A: active; positive

Q: What about the mutagenic call (Test System: AMES SALMONELLA TYPHIMURIUM, Strain/Indicator: TA102, Metabolic Activation: NONE, Method: STANDARD PLATE) of the same molecule?
A: active; positive

Q: What about the mutagenic call (Test System: AMES SALMONELLA TYPHIMURIUM, Strain/Indicator: TA1535, Metabolic Activation: NONE) of the same molecule?
A: inactive; negative

Q: And the mutagenic call (Test System: AMES SALMONELLA TYPHIMURIUM, Strain/Indicator: TA1535, Metabolic Activation: NONE, Method: STANDARD PLATE)?
A: active; positive

Q: What about the mutagenic call (Test System: AMES SALMONELLA TYPHIMURIUM, Strain/Indicator: TA1535, Metabolic Activation: RAT, LIVER, S-9, CLOPHEN A50) of the same molecule?
A: inactive; negative

Q: And the mutagenic call (Test System: AMES SALMONELLA TYPHIMURIUM, Strain/Indicator: TA1535, Metabolic Activation: RAT, LIVER, S-9, PHENOBARBITAL, Method: STANDARD PLATE)?
A: active; positive

Q: What about the mutagenic call (Test System: AMES SALMONELLA TYPHIMURIUM, Strain/Indicator: TA1537, Metabolic Activation: NONE) of the same molecule?
A: active; positive

Q: What about the mutagenic call (Test System: AMES SALMONELLA TYPHIMURIUM, Strain/Indicator: TA1537, Metabolic Activation: NONE, Method: STANDARD PLATE) of the same molecule?
A: active; positive

Q: What about the mutagenic call (Test System: AMES SALMONELLA TYPHIMURIUM, Strain/Indicator: TA1537, Metabolic Activation: RAT, LIVER, S-9, CLOPHEN A50) of the same molecule?
A: active; positive

Q: What about the mutagenic call (Test System: AMES SALMONELLA TYPHIMURIUM, Strain/Indicator: TA1537, Metabolic Activation: S-9, Method: STANDARD PLATE) of the same molecule?
A: active; positive

Q: What about the mutagenic call (Test System: AMES SALMONELLA TYPHIMURIUM, Strain/Indicator: TA1538, Metabolic Activation: NONE) of the same molecule?
A: inactive; negative

Q: What about the mutagenic call (Test System: AMES SALMONELLA TYPHIMURIUM, Strain/Indicator: TA1538, Metabolic Activation: RAT, LIVER, S-9, CLOPHEN A50) of the same molecule?
A: inactive; negative

Q: What about the mutagenic call (Test System: AMES SALMONELLA TYPHIMURIUM, Strain/Indicator: TA1978, Metabolic Activation: NONE, Method: STANDARD PLATE) of the same molecule?
A: inactive; negative

Q: What about the mutagenic call (Test System: AMES SALMONELLA TYPHIMURIUM, Strain/Indicator: TA1978, Metabolic Activation: RAT, LIVER, S-9, PHENOBARBITAL, Method: STANDARD PLATE) of the same molecule?
A: inactive; negative

Q: What about the mutagenic call (Test System: AMES SALMONELLA TYPHIMURIUM, Strain/Indicator: TM677/8-AZAGUANINE, Metabolic Activation: NONE, Method: SUSPENSION/PLATE) of the same molecule?
A: active; positive

Q: What about the mutagenic call (Test System: AMES SALMONELLA TYPHIMURIUM, Strain/Indicator: YG1020, Metabolic Activation: NONE, Method: STANDARD PLATE) of the same molecule?
A: active; positive

Q: And the mutagenic call (Test System: AMES SALMONELLA TYPHIMURIUM, Strain/Indicator: YG1021, Metabolic Activation: NONE, Method: STANDARD PLATE)?
A: inactive; negative

Q: What about the mutagenic call (Test System: AMES SALMONELLA TYPHIMURIUM, Strain/Indicator: YG1024, Metabolic Activation: NONE, Method: STANDARD PLATE) of the same molecule?
A: active; positive

Q: And the mutagenic call (Test System: AMES SALMONELLA TYPHIMURIUM, Strain/Indicator: YG1025, Metabolic Activation: NONE, Method: STANDARD PLATE)?
A: active; positive

Q: And the mutagenic call (Test System: AMES SALMONELLA TYPHIMURIUM, Strain/Indicator: YG1029, Metabolic Activation: NONE, Method: STANDARD PLATE)?
A: active; positive

Q: And the mutagenic call (Test System: CHINESE HAMSTER OVARY, Strain/Indicator: CHO-K1-BH4 (HGPRT), Metabolic Activation: NONE)?
A: active; positive

Q: And the mutagenic call (Test System: MOUSE LYMPHOMA, Strain/Indicator: L5178Y TK+/TK-, Metabolic Activation: NONE)?
A: active; positive

Q: And the mutagenic call (Test System: MOUSE LYMPHOMA, Strain/Indicator: L5178Y TK+/TK-, Metabolic Activation: RAT, LIVER, S-9, AROCLOR 1254)?
A: active; positive

Reference: PubChem BioAssay AID1259407 (Chemical Carcinogenesis Research Information System (CCRIS), 2018)
